The results in this text go back to patent US20100168102A9, “Amide Derivatives as Kinase Inhibitors” (Devgen NV, priority 2005, published 2010).

Broadly, the IC50 is the midpoint of a concentration-inhibition curve.

Where two headings read alike, the source gives them in different places.

The target in one test is T1, PKC epsilon (Homo sapiens, UniProt Q02156).
T1 construct: purchased Invitrogen P2282
T1 sequence (Q02156 1-737): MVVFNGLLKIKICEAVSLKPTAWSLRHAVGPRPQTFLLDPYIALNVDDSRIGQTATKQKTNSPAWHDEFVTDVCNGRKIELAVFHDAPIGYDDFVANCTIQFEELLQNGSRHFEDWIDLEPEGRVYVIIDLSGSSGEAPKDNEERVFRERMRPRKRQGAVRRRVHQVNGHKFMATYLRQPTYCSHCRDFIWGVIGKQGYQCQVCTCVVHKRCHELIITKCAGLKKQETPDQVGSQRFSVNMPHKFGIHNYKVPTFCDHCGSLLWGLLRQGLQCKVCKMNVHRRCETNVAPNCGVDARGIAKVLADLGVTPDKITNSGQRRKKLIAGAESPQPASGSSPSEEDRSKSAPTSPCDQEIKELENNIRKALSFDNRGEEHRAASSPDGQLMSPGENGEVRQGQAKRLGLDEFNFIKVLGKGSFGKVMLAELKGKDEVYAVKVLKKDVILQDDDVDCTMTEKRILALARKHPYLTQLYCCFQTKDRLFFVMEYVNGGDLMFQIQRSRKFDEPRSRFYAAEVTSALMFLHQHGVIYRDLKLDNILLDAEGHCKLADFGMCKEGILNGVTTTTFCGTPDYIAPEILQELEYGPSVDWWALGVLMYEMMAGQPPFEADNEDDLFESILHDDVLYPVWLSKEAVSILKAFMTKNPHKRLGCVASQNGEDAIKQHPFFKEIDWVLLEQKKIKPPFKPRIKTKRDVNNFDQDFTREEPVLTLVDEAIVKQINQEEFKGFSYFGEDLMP
Put plainly: Biochemical assay for PKC epsilon (fluorescence polarization, Protein Kinase C Assay Kit, Red). The conditions noted are these: read-out: IC50 μM PKCε. The procedure, abridged: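 PKC epsilon at 10 ng/ml final was preincubated 30 min at room temperature with compound in HEPES pH 7.4 with DTT and Triton X-100. ATP/protein substrate was then added in buffer with MgCl2 and CaCl2 for 80 min. The reaction was stopped with EDTA, phosphorylation was detected by fluorescence polarization with rhodamine tracer and anti-phosphoserine antibody, and IC50 values came from curve fits.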
For orientation: In fluorescence polarisation assays a small probe gives low polarisation when free and higher when bound to something large.

The next test deals with T2, human ROCKα/ROCKII mix (Homo sapiens, UniProt O75116).
T2 construct: purchased Upstate Biotechnology 14-451
The experiment in a line: Biochemical assay for ROCK (fluorescence polarization, ROCK IMAP Kit).

Setting [1] is: compounds of Formula XIV, Table 3.
Setting [2] is: Table 2, compounds of Formula XIII.

T2 sequence (O75116 11-552 limits assumed): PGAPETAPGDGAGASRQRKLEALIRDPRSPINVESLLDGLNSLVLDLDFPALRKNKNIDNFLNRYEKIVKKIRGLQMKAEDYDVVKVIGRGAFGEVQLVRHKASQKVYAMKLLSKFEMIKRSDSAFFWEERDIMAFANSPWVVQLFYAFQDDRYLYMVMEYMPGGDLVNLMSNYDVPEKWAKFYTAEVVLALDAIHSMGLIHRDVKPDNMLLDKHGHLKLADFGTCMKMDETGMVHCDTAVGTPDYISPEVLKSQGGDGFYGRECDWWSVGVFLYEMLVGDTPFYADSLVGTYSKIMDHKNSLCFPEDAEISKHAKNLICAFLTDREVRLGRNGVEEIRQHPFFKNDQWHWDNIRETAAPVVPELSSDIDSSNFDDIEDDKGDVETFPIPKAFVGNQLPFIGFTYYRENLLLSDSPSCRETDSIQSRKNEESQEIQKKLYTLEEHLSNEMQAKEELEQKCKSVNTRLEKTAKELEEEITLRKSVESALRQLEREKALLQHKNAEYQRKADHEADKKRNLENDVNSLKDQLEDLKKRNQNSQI

On to `NC(CC(=O)NCc1cccc(C(F)(F)F)c1)c1ccc(C(=O)Nc2ccncc2)cc1` (stereo not drawn) [Compound 264, 4-[1-Amino-2-(3-trifluoromethyl-benzylcarbamoyl)-ethyl]-N-pyridin-4-yl-benzamide], for which the IC50 on PKC epsilon (setting [1]) was 0.5 to 5 µM; on human ROCKα/ROCKII mix (setting [1]) it was 0.05 to 0.5 µM.

On to “4-[1-Amino-2-(1-(S)-p-tolyl- propylcarbamoyl)-ethyl]-N- pyridin-4-yl-benzamide [Compound 219]”, for which the results for the half-inhibitory concentration (IC50) at PKC epsilon (setting [1]) and at human ROCKα/ROCKII mix (setting [1]) were 0.5 to 5 µM and 0.05 to 0.5 µM, respectively.

As to `COc1ccc(CC(=O)NCC(N)c2ccc(C(=O)Nc3ccncc3)cc2)cc1` (stereo not drawn) [Compound 140, 4-{1-amino-2-[2-(4-methoxy-phenyl)-acetylamino]-ethyl}-N-pyridin-4-yl-benzamide], the IC50 lay in the range of 5 to 50 µM at PKC epsilon (setting [2]) and 0.05 to 0.5 µM at human ROCKα/ROCKII mix (setting [2]).

Take “4-[1-amino-2-(4-methyl- cyclohexylcarbamoyl)-ethyl]- N-pyridin-4-yl-benzamide [Compound 173]”: the results for the half-maximal inhibitory concentration (IC50) on PKC epsilon (setting [1]) and on human ROCKα/ROCKII mix (setting [1]) were 0.5 to 5 µM and 0.05 to 0.5 µM, respectively.

In the case of `NC(CNC(=O)C1(c2ccsc2)CC1)c1ccc(C(=O)Nc2ccncc2)cc1` (stereo not drawn) [Compound 347, 4-{1-Amino-2-[(1-thiophen-3-yl-cyclopropanecarbonyl)-amino]-ethyl}-N-pyridin-4-yl-benzamide], the IC50 on PKC epsilon (setting [2]) and at human ROCKα/ROCKII mix (setting [2]) was 0.05 to 0.5 µM in each case.

Turning to `CS(=O)(=O)NCCNC(=O)CC(N)c1ccc(C(=O)Nc2ccncc2)cc1` (stereo not drawn) [Compound 176, 4-[1-amino-2-(2-methanesulfonylamino-ethylcarbamoyl)-ethyl]-N-pyridin-4-yl-benzamide], the results for the IC50 on PKC epsilon (setting [1]) and against human ROCKα/ROCKII mix (setting [1]) were 0.5 to 5 µM and 0.05 to 0.5 µM, respectively.

For `NC(CNC(=O)Cc1ccc2c(c1)OCO2)c1ccc(C(=O)Nc2ccncc2)cc1` (stereo not drawn) [Compound 141, 4-{1-amino-2-(2-benzo[1,3]dioxol-5-yl-acetylamino)-ethyl]-N-pyridin-4-yl-benzamide], the values for the IC50 at PKC epsilon (setting [2]) and against human ROCKα/ROCKII mix (setting [2]) were 5 to 50 µM and 0.05 to 0.5 µM, respectively.

For `NC(c1ccc(C(=O)Nc2ccncc2)cc1)C1CCCN1C(=O)C1CCCc2ccccc21` (stereo not drawn) [Compound 613, 4-{Amino-[1-(1,2,3,4-tetrahydro-naphthalene-1-carbonyl)-pyrrolidin-2-yl]-methyl}-N-pyridin-4-yl-benzamide], the 50% inhibitory concentration (IC50) on PKC epsilon and on human ROCKα/ROCKII mix was 0.5 to 5 µM throughout.

`CCCC(=O)NCC(N)c1ccc(C(=O)Nc2ccncc2)cc1` (stereo not drawn) [Compound 32, 4-(1-Amino-2-butyrylamino-ethyl)-N-pyridin-4-y-benzamide]: the IC50 on PKC epsilon (setting [2]) and against human ROCKα/ROCKII mix (setting [2]) was 0.5 to 5 µM throughout.

Regarding `CNS(=O)(=O)c1ccc(C(=O)NCC(N)c2ccc(C(=O)Nc3ccncc3)cc2)cc1` (stereo not drawn) [Compound 98, 4-[1-amino-2-(4-methylsulfamoyl-benzoylamino)-ethyl]-N-pyridin-4-yl-benzamide], the results for the IC50 at PKC epsilon (setting [2]) and against human ROCKα/ROCKII mix (setting [2]) were 5 to 50 µM and 0.5 to 5 µM, respectively.

Regarding `Cc1ccc(CCNC(=O)CC(N)c2ccc(C(=O)Nc3ccncc3)cc2)cc1` (stereo not drawn) [Compound 284, 4-[1-Amino-2-(2-p-tolyl-ethyl-carbamoyl)-ethyl]-N-pyridin-4-yl-benzamide], the IC50 on PKC epsilon (setting [1]) lay within 5 to 50 µM; against human ROCKα/ROCKII mix (setting [1]) it was 0.05 to 0.5 µM.

Consider `NC(CNC(=O)c1ccc([N+](=O)[O-])o1)c1ccc(C(=O)Nc2ccncc2)cc1` (stereo not drawn) [Compound 120, 5-Nitro-furan-2-carboxylic acid {2-amino-2-[4-(pyridin-4-ylcarbamoyl)-phenyl]-ethyl}-amide], for which the IC50 on PKC epsilon (setting [2]) and against human ROCKα/ROCKII mix (setting [2]) was 0.5 to 5 µM throughout.

Take “N-{2-Amino-2-[4-(pyridin-4- ylcarbamoyl)-phenyl]-ethyl}- nicotinamide [Compound 107]”: the IC50 on PKC epsilon (setting [2]) and on human ROCKα/ROCKII mix (setting [2]) was 0.5 to 5 µM in each case.

For the compound `CCCOc1ccc(C(=O)NCC(N)c2ccc(C(=O)Nc3ccncc3)cc2)cc1` (stereo not drawn) [Compound 75, 4-[1-amino-2-(4-propoxy-benzoylamino)-ethyl]-N-pyridin-4-yl-benzamide], the IC50 was 5 to 50 µM on PKC epsilon (setting [2]) and 0.5 to 5 µM against human ROCKα/ROCKII mix (setting [2]).

Take `NC(CNC(=O)c1c[nH]cn1)c1ccc(C(=O)Nc2ccncc2)cc1` (stereo not drawn) [Compound 122, 1H-Imidazole-4-carboxylic acid {2-amino-2-[4-(pyridin-4-ylcarbamoyl)-phenyl]-ethyl}-amide]: the figures for the half-inhibitory concentration (IC50) at PKC epsilon (setting [2]) and against human ROCKα/ROCKII mix (setting [2]) were 5 to 50 µM and 0.5 to 5 µM, respectively.

Turning to `Cc1ccc(CNC(=O)CC(N)c2ccc(C(=O)Nc3ccncc3)cc2)cc1Cl` (stereo not drawn) [Compound 249, 4-[1-Amino-2-(3-chloro-4-methyl-benzylcarbamoyl)-ethyl]-N-pyridin-4-yl-benzamide], the IC50 at PKC epsilon (setting [1]) lay in the range of 0.5 to 5 µM; against human ROCKα/ROCKII mix (setting [1]) it was 0.05 to 0.5 µM.

Consider `NC(c1ccc(C(=O)Nc2ccncc2)cc1)C1CCCN1C(=O)C1CCOc2ccccc21` (stereo not drawn) [Compound 615, 4-{Amino-[1-(chroman-4-carbonyl)-pyrrolidin-2-yl]-methyl}-N-pyridin-4-yl-benzamide], for which the IC50 on PKC epsilon fell in the range of 5 to 50 µM; against human ROCKα/ROCKII mix it was 0.5 to 5 µM.

“4-(1-amino-2-benzoylamino-ethyl)- N-pyridin-4-yl-benzamide [Compound 69]”: the IC50 on PKC epsilon (setting [2]) is 0.5 to 5 µM; on human ROCKα/ROCKII mix (setting [2]), 0.05 to 0.5 µM.

`NC(CNC(=S)Nc1ccccc1)c1ccc(C(=O)Nc2ccncc2)cc1` (stereo not drawn) [Compound 11, 4-[1-amino-2-(3-phenyl-thioureido)-ethyl]-N-pyridin-4-yl-benzamide]: the IC50 on PKC epsilon was 0.5 to 5 µM; at human ROCKα/ROCKII mix, 0.05 to 0.5 µM.

In the case of `CC(C)(Cc1ccc(F)cc1)NC(=O)CC(N)c1ccc(C(=O)Nc2ccncc2)cc1` (stereo not drawn) [Compound 308, 4-{1-amino-2-[2-(4-fluoro-phenyl)-1,1-dimethyl-ethylcarbamoyl]-ethyl}-N-pyridin-4-yl-benzamide], the half-inhibitory concentration (IC50) at PKC epsilon (setting [1]) and against human ROCKα/ROCKII mix (setting [1]) was 0.05 to 0.5 µM each time.

With `COc1ccc(CC(=O)N2CCCC2C(N)c2ccc(C(=O)Nc3ccncc3)cc2)cc1` (stereo not drawn) [Compound 528, 4-(Amino-{1-[2-(4-methoxy-phenyl)-acetyl]-pyrrolidin-2-yl}-methyl)-N-pyridin-4-yl-benzamide], the results for the IC50 on PKC epsilon and on human ROCKα/ROCKII mix were 0.5 to 5 µM and 0.05 to 0.5 µM, respectively.

Consider `COC(=O)C(C)NC(=O)CC(N)c1ccc(C(=O)Nc2ccncc2)cc1` (stereo not drawn) [Compound 182], for which the IC50 on PKC epsilon (setting [1]) lay within 0.5 to 5 µM; against human ROCKα/ROCKII mix (setting [1]) it was 0.05 to 0.5 µM.

As for `NC(c1ccc(C(=O)Nc2ccncc2)cc1)C1CCCN1C(=O)C1(c2ccc(Cl)c(Cl)c2)CCC1` (stereo not drawn) [Compound 595, 4-(Amino-{1-[1-(3,4-dichloro-phenyl)-cyclobutanecarbonyl]-pyrrolidin-2-yl}-methyl)-N-pyridin-4-yl-benzamide], the 50% inhibitory concentration (IC50) at PKC epsilon and against human ROCKα/ROCKII mix was 0.5 to 5 µM in each case.

As for “4-{1-Amino-2-[methyl-(2- methyl-2-thiophen-3-yl- propionyl)- amino]-ethyl}- N-pyridin-4-yl-benzamide [Compound 449]”, the IC50 at PKC epsilon was 5 to 50 µM; on human ROCKα/ROCKII mix, 0.5 to 5 µM.

`CN(CC(N)c1ccc(C(=O)Nc2ccncc2)cc1)C(=O)C1(c2ccc(F)cc2F)CC1` (stereo not drawn) [Compound 481, 4-(1-Amino-2-{[1-(2,4-difluoro-phenyl)-cyclopropanecarbonyl]-methyl-amino}-ethyl)-N-pyridin-4-yl-benzamide]: the figures for the IC50 on PKC epsilon and on human ROCKα/ROCKII mix were 5 to 50 µM and 0.5 to 5 µM, respectively.

With `NC(CC(=O)Nc1ccc2[nH]ccc2c1)c1ccc(C(=O)Nc2ccncc2)cc1` (stereo not drawn) [Compound 321, 4-[1-Amino-2-(1H-indol-5-ylcarbamoyl)-ethyl]-N-pyridin-4-yl-benzamide], the results for the IC50 on PKC epsilon (setting [1]) and on human ROCKα/ROCKII mix (setting [1]) were 0.5 to 5 µM and 0.05 to 0.5 µM, respectively.

Turning to `CC(CNC(=O)CC(N)c1ccc(C(=O)Nc2ccncc2)cc1)c1ccc(Cl)cc1` (stereo not drawn) [Compound 301, 4-{1-Amino-2-[2-(4-chloro-phenyl)-propylcarbamoyl]-ethyl}-N-pyridin-4-yl-benzamide], the IC50 on PKC epsilon (setting [1]) and against human ROCKα/ROCKII mix (setting [1]) was 0.05 to 0.5 µM in each case.

As to “4-[1-Amino-2-(phenethyl- phenyl-carbamoyl)-ethyl]-N- pyridin-4-yl-benzamide [Compound 286]”, the values for the IC50 at PKC epsilon (setting [1]) and on human ROCKα/ROCKII mix (setting [1]) were 0.5 to 5 µM and 0.05 to 0.5 µM, respectively.

Take `NC(c1ccc(C(=O)Nc2ccncc2)cc1)C1CCCN1C(=O)C1(c2ccc(Cl)cc2)CCCC1` (stereo not drawn) [Compound 566, 4-(Amino-{1-[1-(4-chloro-phenyl)-cyclopentanecarbonyl]-pyrrolidin-2-yl}-methyl)-N-pyridin-4-yl-benzamide]: the IC50 at PKC epsilon and against human ROCKα/ROCKII mix was 0.5 to 5 µM in each case.

Consider `Cc1ccccc1CNC(=O)CC(N)c1ccc(C(=O)Nc2ccncc2)cc1` (stereo not drawn) [Compound 231, 4-[1-Amino-2-(2-methyl-benzylcarbamoyl)-ethyl]-N-pyridin-4-yl-benzamide], for which the concentration for half-maximal inhibition (IC50) at PKC epsilon (setting [1]) lay in the range of 0.5 to 5 µM; against human ROCKα/ROCKII mix (setting [1]), 0.05 to 0.5 µM.
